Test results: patent US20240308996A1, “PYRIDOPYRIDINES AND DERIVATIVES THEREOF AS SELECTIVE KINASE INHIBITORS” (University of Sharjah, priority 2023, published 2024)

Experiments:
Assay type in all cases: cell-based
[1] = tested on: CCRF-CEM; assay: NCI-60 cell line panel: CCRF-CEM; conditions: Leukemia
Experimental: (§1) It was carried out at the NCI, Bethesda, MD, USA, utilizing their standard protocol.

[2] = tested on: HL-60(TB); assay: NCI-60 cell line panel: HL-60(TB); set-up: TGI: unit not given here; conditions: Leukemia
Experimental: as §1

[3] = tested on: MOLT-4; assay: NCI-60 cell line panel: MOLT-4; set-up: TGI: unit not given here; conditions: Leukemia
Experimental: as §1

[4] = tested on: RPMI-8226; assay: NCI-60 cell line panel: RPMI-8226; conditions: Leukemia
Experimental: as §1

[5] = tested on: SR; assay: NCI-60 cell line panel: SR; conditions: Leukemia
Experimental: as §1

[6] = tested on: A549/ATCC; assay: NCI-60 cell line panel: A549/ATCC; conditions: Non-Small Cell Lung Cancer
Experimental: as §1

[7] = tested on: NCI-H226; assay: NCI-60 cell line panel: NCI-H226; conditions: Non-Small Cell Lung Cancer
Experimental: as §1

[8] = tested on: NCI-H23; assay: NCI-60 cell line panel: NCI-H23; conditions: Non-Small Cell Lung Cancer
Experimental: as §1

[9] = tested on: COLO 205; assay: NCI-60 cell line panel: COLO 205; set-up: TGI: unit not given here; conditions: Colon Cancer
Experimental: as §1

[10] = tested on: HCC-2998; assay: NCI-60 cell line panel: HCC-2998; conditions: Colon Cancer
Experimental: as §1

[11] = tested on: HCT-116; assay: NCI-60 cell line panel: HCT-116; conditions: Colon Cancer
Experimental: as §1

[12] = tested on: KM12; assay: NCI-60 cell line panel: KM12; conditions: Colon Cancer
Experimental: as §1

[13] = tested on: SW-620; assay: NCI-60 cell line panel: SW-620; conditions: Colon Cancer
Experimental: as §1

[14] = tested on: SF-295; assay: NCI-60 cell line panel: SF-295; conditions: CNS Cancer
Experimental: as §1

[15] = tested on: SF-539; assay: NCI-60 cell line panel: SF-539; conditions: CNS Cancer
Experimental: as §1

[16] = tested on: SNB-19; assay: NCI-60 cell line panel: SNB-19; conditions: CNS Cancer
Experimental: as §1

[17] = tested on: U251; assay: NCI-60 cell line panel: U251; set-up: TGI: unit not given here
Experimental: as §1

[18] = tested on: M14; assay: NCI-60 cell line panel: M14; conditions: Melanoma
Experimental: as §1

[19] = tested on: SK-MEL-2; assay: NCI-60 cell line panel: SK-MEL-2; set-up: TGI: unit not given here; conditions: Melanoma
Experimental: as §1

[20] = tested on: SK-MEL-28; assay: NCI-60 cell line panel: SK-MEL-28; conditions: Melanoma
Experimental: as §1

[21] = tested on: IGROV1; assay: NCI-60 cell line panel: IGROV1
Experimental: as §1

[22] = tested on: OVCAR-3; assay: NCI-60 cell line panel: OVCAR-3; conditions: Ovarian Cancer
Experimental: as §1

[23] = tested on: OVCAR-4; assay: NCI-60 cell line panel: OVCAR-4; conditions: Ovarian Cancer
Experimental: as §1

[24] = tested on: OVCAR-5; assay: NCI-60 cell line panel: OVCAR-5; conditions: Ovarian Cancer
Experimental: as §1

[25] = tested on: 786-0; assay: NCI-60 cell line panel: 786-0; conditions: Renal Cancer
Experimental: as §1

[26] = tested on: RXF 393; assay: NCI-60 cell line panel: RXF 393; conditions: Renal Cancer
Experimental: as §1

[27] = tested on: UO-31; assay: NCI-60 cell line panel: UO-31; set-up: TGI: unit not given here; conditions: Renal Cancer
Experimental: as §1

[28] = tested on: MCF7; assay: NCI-60 cell line panel: MCF7; conditions: Breast Cancer
Experimental: as §1

[29] = tested on: MDA-MB-231/ATCC; assay: NCI-60 cell line panel: MDA-MB-231/ATCC; conditions: Breast Cancer
Experimental: as §1

[30] = tested on: HS 578T; assay: NCI-60 cell line panel: HS 578T
Experimental: as §1

[31] = tested on: BT-549; assay: NCI-60 cell line panel: BT-549; conditions: Breast Cancer
Experimental: as §1

[32] = tested on: HepG2; assay: MTT assay, HepG2 HCC cell line; conditions: Homo sapiens, 48 h, mean of triplicate assays ± SEM
Experimental: Two HCC cell lines (Hep3B and HepG2) were used for screening the antiproliferative activity of the synthesized compounds. The cell lines were obtained from the European Collection of Cell Cultures (ECACC, UK) and maintained in Dulbecco's Modified Eagle Medium (DMEM: Sigma-Aldrich) supplemented with 10% fetal bovine serum (FBS) and 1% penicillin/streptomycin and incubated at 37° C. in a 5% CO2 air atmosphere. In addition, WI-38 normal cell line was used to investigate the safety of these compounds.
MTT assay was conducted to calculate the IC50 of the compounds following the reported procedure . Briefly, the cells were seeded in 96-well tissue culture plates with a density of 5×10^4 cells/well and incubated overnight at 37° C. in a 5% CO2 air atmosphere. […] DMSO was used as a negative control. After 48 h, the media were aspirated, and replaced with media containing 0.5 mg/mL of MTT tetrazolium dye (Sigma-Aldrich) for 2 h at 37° C. Finally, the media were removed and 200 μL of DMSO was added to solubilize the formazan crystals. Absorbance was then measured at 570 nm using Varioskan Flash multimode plate reader (Thermo Scientific, Massachusetts, USA).

## CC(C)NC(=O)c1cc(-c2ccc(NC(=O)Nc3ccc(N4CCN(C)CC4)c(C(F)(F)F)c3)cc2)nc2cccnc12 [Compound 13e, N-Isopropyl-2-(4-(3-(4-(4-methylpiperazin-1-yl)-3-(trifluoromethyl)phenyl)ureido)phenyl)-1,5-naphthyridine-4-carboxamide]
[1]; Homo sapiens
  IC50: 740 nM
[1]; total growth inhibition
  TGI: 1.98 µM
[2]; Homo sapiens
  IC50: 770 nM
[2]; total growth inhibition
  TGI: 2.12
[3]; Homo sapiens
  IC50: 760 nM
[3]; total growth inhibition
  TGI: 2.89
[4]; Homo sapiens
  IC50: 980 nM
[4]; total growth inhibition
  TGI: 3.48 µM
[5]; Homo sapiens
  IC50: 1000 nM
[5]; total growth inhibition
  TGI: 3.19 µM
[6]; Homo sapiens
  IC50: 730 nM
[6]; total growth inhibition
  TGI: 1.64 µM
[7]; Homo sapiens
  IC50: 5.6 µM
[7]; total growth inhibition
  TGI: 14.7 µM
[8]; Homo sapiens
  IC50: 730 nM
[8]; total growth inhibition
  TGI: 1.46 µM
[9]; total growth inhibition
  TGI: 1.86
[9]; Homo sapiens
  IC50: 850 nM
[10]; total growth inhibition
  TGI: 1.36 µM
[10]; Homo sapiens
  IC50: 700 nM
[11]; total growth inhibition
  TGI: 1.35 µM
[11]; Homo sapiens
  IC50: 690 nM
[12]; total growth inhibition
  TGI: 1.66 µM
[12]; Homo sapiens
  IC50: 800 nM
[13]; total growth inhibition
  TGI: 1.3 µM
[13]; Homo sapiens
  IC50: 680 nM
[14]; total growth inhibition, unit assumed
  TGI: 1.13 µM
[14]; Homo sapiens
  IC50: 570 nM
[15]; total growth inhibition
  TGI: 0.99 µM
[15]; Homo sapiens
  IC50: 500 nM
[16]; total growth inhibition
  TGI: 1.56 µM
[16]; Homo sapiens
  IC50: 730 nM
[17]; CNS Cancer, total growth inhibition
  TGI: 1.34
[17]; Homo sapiens, U-251, CNS Cancer
  IC50: 670 nM
[18]; Homo sapiens
  IC50: 670 nM
[18]; total growth inhibition
  TGI: 1.41 µM
[19]; Homo sapiens
  IC50: 1000 nM
[19]; total growth inhibition
  TGI: 2.60
[20]; Homo sapiens
  IC50: 640 nM
[20]; total growth inhibition
  TGI: 1.17 µM
[21]; Homo sapiens, IGROV-1, Ovarian Cancer
  IC50: 740 nM
[21]; Ovarian Cancer, total growth inhibition
  TGI: 1.39 µM
[22]; Homo sapiens
  IC50: 650 nM
[22]; total growth inhibition
  TGI: 1.33 µM
[23]; Homo sapiens
  IC50: 740 nM
[23]; total growth inhibition, in µM (unit assumed)
  TGI: 1.62
[24]; Homo sapiens
  IC50: 650 nM
[24]; total growth inhibition
  TGI: 1.23 µM
[25]; Homo sapiens
  IC50: 530 nM
[25]; total growth inhibition
  TGI: 1.1 µM
[26]; Homo sapiens
  IC50: 510 nM
[26]; total growth inhibition
  TGI: 1.11 µM
[27]; Homo sapiens
  IC50: 590 nM
[27]; total growth inhibition
  TGI: 1.11
[28]; total growth inhibition
  TGI: 1.3 µM
[28]; Homo sapiens
  IC50: 650 nM
[29]; total growth inhibition
  TGI: 1.26 µM
[29]; Homo sapiens
  IC50: 670 nM
[30]; Breast Cancer, HS 578T, total growth inhibition
  TGI: 2.19 µM
[30]; Homo sapiens, Hs-578T
  IC50: 710 nM
[31]; total growth inhibition
  TGI: 7.41 µM
[31]; Homo sapiens
  IC50: 2100 nM
[32]
  IC50: 800 ± 40 nM
